The values below come from ChEMBL document CHEMBL1938321, “Cu-mediated N-arylation of 1,2,3-triazin-4-ones: synthesis of fused triazinone derivatives as potential inhibitors of chorismate mutase” (Bioorg Med Chem Lett, 2012).

For experiment [1], the system named is Mycobacterium tuberculosis H37Rv. Put plainly: Inhibition of Mycobacterium tuberculosis H37Rv chorismate mutase expressed in Escherichia coli assessed as inhibition of prephenate formation at 50 uM after 1 to 5 mins by spectrophotometry.
Experiment [2] has the same test system. Nature of the experiment: (§1) Inhibition of Mycobacterium tuberculosis H37Rv chorismate mutase expressed in Escherichia coli assessed as inhibition of prephenate formation after 1 to 5 mins by spectrophotometry.
Experiment [3] can be described thus: as §1.

For `CCCc1nn(C)c2c(=O)n(-c3ccccc3)nnc12`, the inhibition in experiment [1] was determined as 10%.

As for `O=c1c2c3c(sc2nnn1-c1ccc2ccccc2c1)CCCC3`, the inhibition in experiment [1] amounted to 37%.

In the case of `O=c1c2ccccc2nnn1-c1ccc2ccccc2c1`, the inhibition in experiment [1] amounted to 40%.

For `CCCc1nn(C)c2c(=O)n(-c3ccc4ccccc4c3)nnc12`, the inhibition was 61% in experiment [1] and “Dose-dependent effect” in experiment [2]. In experiment [3], the half-maximal inhibitory concentration (IC50) amounted to 15.1 µM.

As to `CCCc1nn(C)c2c(=O)n(-c3cccc(Cl)c3)nnc12`, the inhibition in experiment [1] stood at 30%.

On to `COc1cc(CCNc2c([N+](=O)[O-])cc(C(=O)O)cc2S(N)(=O)=O)cc(OC)c1`, for which the IC50 in experiment [3] was below 10 µM.

`O=c1c2ccccc2nnn1-c1ccccc1`: the inhibition in experiment [1] turned out to be 12%.

For the molecule `O=c1c2c3c(sc2nnn1-c1ccc(F)cc1)CCCC3`, the inhibition in experiment [1] was found to be 25%.

Consider `CCCc1nn(C)c2c(=O)n(-c3ccc(F)cc3)nnc12`, for which the inhibition in experiment [1] is 24%.
